Test results reported in ChEMBL document CHEMBL5725801, “Fused heterocyclic compounds as CaM kinase inhibitors” (2018).

Assay: CaMKII Cell-Based Activity: CaMKII activity in neonatal rat ventricular myocytes (NRVM) was measured by monitoring the phosphorylation level of phospholamban using high-content imaging. NRVMs were plated in a clear bottom 384-well plate in medium supplemented with 10% fetal bovine serum (FBS) and incubated at 37° C., 5% CO2 overnight. The medium was changed to a serum-free medium and compounds were dosed to the cells. The cells were incubated at 37° C., 5% CO2 for 4 hours and were then treated with 100 nM ATX-II (Alomone Labs) to activate CaMKII. 10 minutes after the addition of ATX-II, the cells were fixed with 4% formaldehyde followed by permeabilization with 0.1% triton X100. The fixed cells were stained with an anti-phospho-phospholamban primary antibody (Santa Cruz Biotechnology) and an Alexa488-labeled anti-rabbit IgG secondary antibody (Life Technologies Corporation) as well as Hoechst 33342 (Life Technologies Corporation). The cells were imaged using an ArrayScan VTI (Cellomics) and analyzed for cells containing a positive fluorescent signal at 485 nm, reported as % responder. The % responders were plotted against the compound concentration to determine the compounds EC50.

Row | SMILES | EC50
1 | CCN(CC)[C@@H](C)CNC(=O)c1cc(NC2COC2)nc(-c2cnn3ccc(-c4cccs4)nc23)c1 | 7290 nM
2 | CCN[C@@H](C)CNC(=O)c1cc(-c2cnn3ccc(-c4cccs4)nc23)nc(N2CC(O)C2)c1 | 604 nM
3 | CCN(CC)[C@@H](C)CNC(=O)c1cc(-c2cnn3ccc(-c4cccs4)nc23)nc(N2CC(C)(OC)C2)c1 | 8.28 nM
4 | CCC(=O)Nc1cc(C(=O)NC[C@H](C)N(CC)CC)cc(-c2cnn3ccc(-c4cccs4)nc23)n1 | 48.8 nM
5 | CCN(CC)[C@@H](C)CNC(=O)c1cc(NS(=O)(=O)C(C)C)nc(-c2cnn3ccc(-c4cccs4)nc23)c1 | 115 nM
6 | CCN(CC)[C@@H](C)CNC(=O)c1cc(-c2cnn3ccc(-c4cccs4)nc23)nc(N2CC(O)(CC)C2)c1 | 24.7 nM
7 | CCN(CC)[C@@H](C)CNC(=O)c1cc(-c2cnn3ccc(-c4cccs4)nc23)nc(N2CC(NC(=O)N(C)C)C2)c1 | 22.6 nM
8 | CCN(CC)[C@@H](C)CNC(=O)c1cc(NC2CCOCC2)nc(-c2cnn3ccc(-c4cccs4)nc23)c1 | 24.2 nM
9 | CCN(CC)[C@@H](C)CNC(=O)c1cc(-c2cnn3ccc(-c4cccs4)nc23)nc(N2CC(NS(C)(=O)=O)C2)c1 | 26.4 nM
10 | CCOC(=O)Nc1cc(C(=O)NC[C@H](C)N(CC)CC)cc(-c2cnn3ccc(-c4cccs4)nc23)n1 | 143 nM
11 | CCN[C@@H](C)CNC(=O)c1cc(-c2cnn3ccc(-c4cccs4)nc23)nc(N2CC(OC)C2)c1 | 90.5 nM
12 | CCN(CC)[C@@H](C)CNC(=O)c1cc(-c2cnn3ccc(-c4cccs4)nc23)nc(N2CCC3(COC3)C2)c1 | 18.2 nM
13 | CCN(CC)[C@@H](C)CNC(=O)c1cc(-c2cnn3ccc(-c4cccs4)nc23)nc(N2CC(F)(F)C(F)(F)C2)c1 | 61.5 nM
14 | CCN(CC)[C@@H](C)CNC(=O)c1cc(-c2cnn3ccc(-c4cccs4)nc23)nc(N2CCN(C(C)=O)CC2)c1 | 43.6 nM
15 | CCN(CC)[C@@H](C)CNC(=O)c1cc(-c2cnn3ccc(-c4cccs4)nc23)nc(N2CC(NS(=O)(=O)Cc3ccon3)C2)c1 | 27 nM
16 | CCN(CC)[C@@H](C)CNC(=O)c1cc(NCC2(C)COC2)nc(-c2cnn3ccc(-c4cccs4)nc23)c1 | 23.4 nM
17 | CCN(CC)[C@@H](C)CNC(=O)c1cc(-c2cnn3ccc(-c4ccns4)nc23)nc(N2CC(OC)C2)c1 | 13.9 nM
18 | CCN(CC)[C@@H](C)CNC(=O)c1cc(-c2cnn3ccc(-c4cccs4)nc23)nc(N2CC(CO)C2)c1 | 21.6 nM
19 | CCN(CC)[C@@H](C)CNC(=O)c1cc(NCC(=O)NC)nc(-c2cnn3ccc(-c4cccs4)nc23)c1 | 108 nM
20 | CCN(CC)[C@@H](C)CNC(=O)c1cc(-c2cnn3ccc(-c4cccs4)nc23)nc(N2C[C@H](O)[C@@H](O)C2)c1 | 250 nM
21 | CCN(CC)[C@@H](C)CNC(=O)c1cc(N[C@H](C)C(=O)NC)nc(-c2cnn3ccc(-c4cccs4)nc23)c1 | 147 nM
22 | CCN(CC)[C@@H](C)CNC(=O)c1cc(-c2cnn3ccc(-c4cccs4)nc23)nc(N2CC(NC(=O)C3CC3)C2)c1 | 3.75 nM
23 | CCN1CCC[C@H]1CNC(=O)c1cc(-c2cnn3ccc(-c4cccs4)nc23)nc(N2CC(OC)C2)c1 | 181 nM
24 | CCN(CC)[C@@H](C)CNC(=O)c1cc(Nc2ncc[nH]2)nc(-c2cnn3ccc(-c4cccs4)nc23)c1 | 247 nM
25 | COC1CN(c2cc(C(=O)NC[C@@H]3CCCN3C)cc(-c3cnn4ccc(-c5cccs5)nc34)n2)C1 | 326 nM

Row | SMILES | EC50
26 | CCN(CC)[C@@H](C)CNC(=O)c1cc(-c2cnn3ccc(-c4cccs4)nc23)nc(N2CCC23COC3)c1 | 54.5 nM
27 | CCN(CC)[C@@H](C)CNC(=O)c1cc(-c2cnn3ccc(-c4cccs4)nc23)nc(N2CC(NS(=O)(=O)CC)C2)c1 | 25.7 nM
28 | CCN(CC)[C@@H](C)CNC(=O)c1cc(NS(=O)(=O)C2CC2)nc(-c2cnn3ccc(-c4cccs4)nc23)c1 | 95.9 nM
29 | CCN(CC)[C@@H](C)CNC(=O)c1cc(-c2cnn3ccc(-c4cccs4)nc23)nc(N(C)S(C)(=O)=O)c1 | 9.6 nM
30 | CCN(CC)[C@@H](C)CNC(=O)c1cc(-c2cnn3ccc(-c4cccs4)nc23)nc(N2CCC(F)(F)C2)c1 | 28.1 nM
31 | CCN(CC)[C@@H](C)CNC(=O)c1cc(N[C@H]2CCOC2)nc(-c2cnn3ccc(-c4cccs4)nc23)c1 | 29.9 nM
32 | CCN(CC)[C@@H](C)CNC(=O)c1cc(NCCN2CC(F)(F)C2)nc(-c2cnn3ccc(-c4cccs4)nc23)c1 | 45.6 nM
33 | CCN(CC)[C@@H](C)CNC(=O)c1cc(-c2cnn3ccc(-c4cccs4)nc23)nc(N2CC(NS(=O)(=O)C(C)C)C2)c1 | 31.5 nM
34 | CCN(CC)[C@@H](C)CNC(=O)c1cc(NCCCO)nc(-c2cnn3ccc(-c4cccs4)nc23)c1 | 49.4 nM
35 | CCN(CC)[C@@H](C)CNC(=O)c1cc(NC(=O)C2CC2)nc(-c2cnn3ccc(-c4cccs4)nc23)c1 | 27.4 nM
36 | COC1CN(c2cc(C(=O)NC[C@@H]3CCCN3)cc(-c3cnn4ccc(-c5cccs5)nc34)n2)C1 | 261 nM
37 | CCN(CC)[C@@H](C)CNC(=O)c1cc(NCCN2CCOCC2)nc(-c2cnn3ccc(-c4cccs4)nc23)c1 | 27.5 nM
38 | CCN[C@@H](C)CNC(=O)c1cc(-c2cnn3ccc(-c4ccccc4)nc23)nc(N2CC(OC)C2)c1 | 145 nM
39 | CCN(CC)[C@@H](C)CNC(=O)c1cc(NC(=O)OC(C)C)nc(-c2cnn3ccc(-c4cccs4)nc23)c1 | 39.8 nM
40 | CCN(CC)[C@@H](C)CNC(=O)c1cc(NCc2ncc[nH]2)nc(-c2cnn3ccc(-c4cccs4)nc23)c1 | 148 nM
41 | CCN(CC)[C@@H](C)CNC(=O)c1cc(NS(=O)(=O)CC)nc(-c2cnn3ccc(-c4cccs4)nc23)c1 | 126 nM
42 | CCN(CC)[C@@H](C)CNC(=O)c1cc(-c2cnn3ccc(-c4cccs4)nc23)nc(N2CCC(OC)CC2)c1 | 110 nM
43 | CCN(CC)[C@@H](C)CNC(=O)c1cc(NCC(N)=O)nc(-c2cnn3ccc(-c4cccs4)nc23)c1 | 306 nM
44 | CCN(CC)[C@@H](C)CNC(=O)c1cc(NCc2cc[nH]n2)nc(-c2cnn3ccc(-c4cccs4)nc23)c1 | 54.3 nM
45 | CCN(CC)[C@@H](C)CNC(=O)c1cc(N[C@H](C)CO)nc(-c2cnn3ccc(-c4cccs4)nc23)c1 | 75.2 nM
46 | CCN(CC)[C@@H](C)CNC(=O)c1cc(-c2cnn3ccc(-c4cccs4)nc23)nc(N2CC(NC)C2)c1 | 69.9 nM
47 | CCN[C@@H](C)CNC(=O)c1cc(-c2cnn3ccc(-c4cccs4)nc23)nc(N2CC(C)(O)C2)c1 | 368 nM
48 | CCN(CC)[C@@H](C)CNC(=O)c1cc(N[C@@H](C)CO)nc(-c2cnn3ccc(-c4cccs4)nc23)c1 | 34 nM
49 | CCN(CC)[C@@H](C)CNC(=O)c1cc(-c2cnn3ccc(-c4cccs4)nc23)nc(N2CC(C(N)=O)C2)c1 | 71.4 nM
50 | CCN(CC)[C@@H](C)CNC(=O)c1cc(-c2cnn3ccc(-c4cccs4)nc23)nc(N2CC(CO)(CO)C2)c1 | 107 nM

Row | SMILES | EC50
51 | CCN(CC)[C@@H](C)CNC(=O)c1cc(NC2CC2)nc(-c2cnn3ccc(-c4cccs4)nc23)c1 | 30.6 nM
52 | CCN(CC)[C@@H](C)CNC(=O)c1cc(NCC2COC2)nc(-c2cnn3ccc(-c4cccs4)nc23)c1 | 13600 nM
53 | CCN(CC)[C@@H](C)CNC(=O)c1cc(NCCC(C)(C)O)nc(-c2cnn3ccc(-c4cccs4)nc23)c1 | 22.3 nM
54 | COC1CN(c2cc(C(=O)NC[C@H](C)N)cc(-c3cnn4ccc(-c5cccs5)nc34)n2)C1 | 139 nM
55 | CCN(CC)[C@@H](C)CNC(=O)c1cc(NCCS(N)(=O)=O)nc(-c2cnn3ccc(-c4cccs4)nc23)c1 | 232 nM
56 | CCN(CC)[C@@H](C)CNC(=O)c1cc(-c2cnn3ccc(-c4cccs4)nc23)nc(N2C[C@@H]3C[C@H]2CO3)c1 | 514 nM
57 | CCN(CC)[C@@H](C)CNC(=O)c1cc(-c2cnn3ccc(-c4cccs4)nc23)nc(N2CCNCC2)c1 | 67 nM
58 | CCN(CC)CCNC(=O)c1cc(-c2cnn3ccc(-c4cccs4)nc23)nc(N2CC(OC)C2)c1 | 90.9 nM
59 | CCN(CC)[C@@H](C)CNC(=O)c1cc(N[C@H](C)C(N)=O)nc(-c2cnn3ccc(-c4cccs4)nc23)c1 | 355 nM
60 | CCN(CC)[C@@H](C)CNC(=O)c1cc(-c2cnn3ccc(-c4cccs4)nc23)nc(N2CCNC2=O)c1 | 150 nM
61 | CCN(CC)[C@@H](C)CNC(=O)c1cc(NS(C)(=O)=O)nc(-c2cnn3ccc(-c4cccs4)nc23)c1 | 107 nM
62 | CCN(CC)[C@@H](C)CNC(=O)c1cc(-c2cnn3ccc(-c4cccs4)nc23)nc(N2CC(O)(C3CC3)C2)c1 | 56.7 nM
63 | CCN(CC)[C@@H](C)CNC(=O)c1cc(NCCCOC)nc(-c2cnn3ccc(-c4cccs4)nc23)c1 | 31.9 nM
64 | CCN(CC)[C@@H](C)CNC(=O)c1cc(Nc2cn[nH]c2)nc(-c2cnn3ccc(-c4cccs4)nc23)c1 | 9.87 nM
65 | CCN(CC)[C@@H](C)CNC(=O)c1cc(-c2cnn3ccc(-c4cccs4)nc23)nc(N2CC(O)(C(F)(F)F)C2)c1 | 26.5 nM
66 | CCN(CC)[C@@H](C)CNC(=O)c1cc(NC[C@@H](C)O)nc(-c2cnn3ccc(-c4cccs4)nc23)c1 | 32.7 nM
67 | CCN(CC)[C@@H](C)CNC(=O)c1cc(-c2cnn3ccc(-c4cccs4)nc23)nc(N2CC(C(C)(C)O)C2)c1 | 57.2 nM
68 | CCN(CC)[C@@H](C)CNC(=O)c1cc(-c2cnn3ccc(-c4cccs4)nc23)nc(N2CC(C)(O)C2)c1 | 21.4 nM
69 | CCN(CC)[C@@H](C)CNC(=O)c1cc(NC(=O)C(C)C)nc(-c2cnn3ccc(-c4cccs4)nc23)c1 | 20.5 nM
70 | CCN(CC)[C@@H](C)CNC(=O)c1cc(-c2cnn3ccc(-c4cccs4)nc23)nc(N2CC(N(C)C)C2)c1 | 168 nM
71 | COC1CN(c2cc(C(=O)NC[C@H](C)N)cc(-c3cnn4ccc(-c5ccccc5)nc34)n2)C1 | 122 nM
72 | CCN(CC)[C@@H](C)CNC(=O)c1cc(NC[C@H](C)O)nc(-c2cnn3ccc(-c4cccs4)nc23)c1 | 27.1 nM
73 | CCN(CC)[C@@H](C)CNC(=O)c1cc(-c2cnn3ccc(-c4cccs4)nc23)nc(N2CC(NC(C)=O)C2)c1 | 28.4 nM
74 | CCN(CC)[C@@H](C)CNC(=O)c1cc(N[C@@H](C)C(N)=O)nc(-c2cnn3ccc(-c4cccs4)nc23)c1 | 148 nM
75 | CCN(CC)[C@@H](C)CNC(=O)c1cc(N[C@@H](C)C(=O)NC)nc(-c2cnn3ccc(-c4cccs4)nc23)c1 | 129 nM
